# Laboratory results reported in US10905750B2, “GRP78 antagonist that block binding of receptor tyrosine kinase orphan receptors as immunotherapy anticancer agents” (CREATIVE BIOTHERAPEUTICS, LLC, priority 2017, dated 2021).
# Entries after “also recorded” stand apart in the source; their conditions may differ.
# B1: unfolded K5: unfolded K5(3-89 Active Zone)frag SEQ ID NO:1 kringle, control (protein)
# chain: SEEDCMFGNGKGYRGKRATTVTGTPCQDWAAQEPHRHSIFTPETNPRAGLEKNYCRNPDGDVGGPWCYTTNPRKLYDYCDVPQCAAPKS
# modifications: unfolded; Synthetic Peptide K5(3-89 Active Zone)
# Experiments:
# [1] = tested on: BT549 human breast cancer cells; experiment: WST-8 proliferation assay, BT549 (5 day); assay type: cell-based; settings: BT-549, 120 h, GRP78 10 ug/ml, 5 days, read-out: Proliferation Inhibition (5 day) IC50, Breast Cancer BT549
# Experimental: The inhibition effect of GRP78 antagonist on metastatic triple-negative, chemo-resistant BT549 cells was assessed using a proliferation assay.
# [2] = tested on: mouse breast cancer cells, 4T1; experiment: WST-8 proliferation assay, 4T1 (5 day); assay type: cell-based; settings: 120 h, GRP78 10 ug/ml, 5 days, read-out: Proliferation Inhibition (5 day) IC50, Mouse Breast Cancer 4T1
# [3] = tested on: chemo-resistant colon cancer cells (DLD-1); experiment: WST-8 proliferation assay, DLD-1 (5 day); assay type: cell-based; settings: Homo sapiens, DLD-1, 120 h; GRP78 10 ug/ml, 5 days; read-out: Proliferation Inhibition (5 day) IC50, Colon Cancer DLD-1
# GRP78 = target: T1, GRP78 (Homo sapiens, UniProt P11021); experiment: GRP78 ELISA, direct binding of biotin-labelled kringles; settings: FIG. 19A
# T1 construct: purchased StressMarq
# T1 sequence (P11021 19-654, species assumed): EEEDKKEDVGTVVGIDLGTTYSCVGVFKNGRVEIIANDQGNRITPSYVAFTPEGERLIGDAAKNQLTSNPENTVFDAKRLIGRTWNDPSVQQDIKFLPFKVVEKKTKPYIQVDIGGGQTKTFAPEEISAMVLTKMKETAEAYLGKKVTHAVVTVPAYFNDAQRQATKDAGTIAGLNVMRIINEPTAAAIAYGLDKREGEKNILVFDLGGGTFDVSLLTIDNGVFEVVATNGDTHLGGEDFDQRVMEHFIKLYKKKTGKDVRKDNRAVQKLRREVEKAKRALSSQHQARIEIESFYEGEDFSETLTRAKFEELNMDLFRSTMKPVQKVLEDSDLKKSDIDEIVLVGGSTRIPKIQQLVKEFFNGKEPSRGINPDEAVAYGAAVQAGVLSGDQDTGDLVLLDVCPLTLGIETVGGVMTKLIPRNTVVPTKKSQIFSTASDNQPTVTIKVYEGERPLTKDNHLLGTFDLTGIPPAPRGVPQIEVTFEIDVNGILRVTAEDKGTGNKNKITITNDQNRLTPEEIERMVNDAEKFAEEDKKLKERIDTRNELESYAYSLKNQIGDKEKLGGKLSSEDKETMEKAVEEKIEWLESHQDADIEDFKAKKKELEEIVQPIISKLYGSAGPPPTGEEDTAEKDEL
# Source text: Recombinant K5-fragment biotin and Kr1 fragment-biotin were used for binding. Neutra-avidin-HRP was used to detect binding after washing with PBS.
# To determine if ROR1 is expressed on immature dendritic cells, CD14^+ cells were isolated from human PBMCs and cultured in GM-CSF, and IL-4 for 7 days to produce immature DCs. […] This flow cytometry analysis supports the hypothesis that immature dendritic cells express ROR1 in which the ROR1 kringle domain binds to GRP78.
# Comparison of GRP78 binding for the two kringle domains was performed by a GRP78 ELISA. GRP78 (StressMarq) (1 ug/ml@ 100 μl/well) was bound to a tissue culture coated 96 well plate overnight at 4° C. After washing 3× with PBS, the plates were blocked with superblock (Pierce) for 1 hour at room temperature. […] The plate was then washed 3× with PBS again and Neutra-avidin-HRP was added to the wells for 1 hour at room temperature. The wells were washed again with PBS and one step TMB (Pierce) was added to the wells with absorbance recorded after 30 minutes to measure kringle binding. […] To analyze these peptides for binding to GRP78, we used a 96 well competition binding assay. The assay consisted of binding GRP78 to a tissue coated 96 well plate as listed above. […] After the plate was washed, Neutra-avidin-HRP was added and bound K5 was measured by adding HRP substrate, TMB, as listed above.
# D54 glioma cells = experiment: Tumor cell proliferation assay 72 hours, D54; assay type: cell-based
# Experimental: (§1) For the proliferation assay, cells were plated in 96 well plates at approximately 3000 cells per well overnight. The media was removed and fresh media with 1% FBS containing 10 μg/ml GRP78 was added along with the GRP78 antagonists. The plates were incubated for 72 hours at 37 C in 8% CO2. After 72 hours, cell number was determined with a WST-8 cell proliferation kit (Sigma). […] The only tumor cell line tested to not be inhibited by GRP78 antagonists was HT29, a colon carcinoma cell line. From our previous data above, we know U87 and D54 have ROR1 expressed on their cell surfaces.
# [4] = tested on: Calu 6 lung carcinoma cells; experiment: Tumor cell proliferation assay 72 hours, Calu 6; assay type: cell-based
# Experimental: as §1
# [5] = tested on: MDA231 breast carcinoma cells; experiment: Tumor cell proliferation assay 72 hours, MDA231; assay type: cell-based
# Experimental: as §1
# U87 glioma cells = experiment: Tumor cell proliferation assay 72 hours, U87; assay type: cell-based
# Experimental: as §1
# [6] = tested on: HT29 colon carcinoma cells; experiment: Tumor cell proliferation assay 72 hours, HT29; assay type: cell-based
# Experimental: as §1
# 293 Kidney fibroblasts = experiment: Proliferation assay 72 hours, 293 kidney normal cells; assay type: cell-based, human
# Experimental: as §1
# panel of tumor cells = experiment: Tumor cell proliferation assay 72 hours, whole panel; assay type: cell-based; settings: in words
# Experimental: as §1
# [7] = tested on: GRP78 treated dendritic cells; experiment: Tolerogenic phenotype of GRP78 treated dendritic cells (flow cytometry, IL-10 ELISA); assay type: cell-based, human; settings: for maturity marker CD86 on DCs exposed to GRP78/LPS: FIG. 13; for activity for reversing the tolerogenic phenotype of dendritic cells induced by GRP78: dose dependent, in words; for potency in blocking B7H3 on DCs exposed to GRP78, relative to K5: flow cytometry, FIG. 9A
# Experimental: Consequently surface GRP78 binding on tumor cells leads to chemo-resistance and proliferation. […] Immature dendritic cells were differentiated from isolated CD14^+ myeloid cells with the addition of GM-CSF and IL-4 for 7 days. GRP78 (10 μg/ml) was added to the cells to produce a tolerogenic phenotype showing up regulation of PD-L1, B7H4, B7H3, IL-10 and down regulation of CD86. Therefore our GRP78 antagonists can potently block the activity of GRP78 on dendritic cells.
# FIG. 9A-9C illustrates increasing amounts of the GRP78 antagonists result in blocking GRP78 which reduces checkpoint protein expression on DCs. A tolerogenic dendritic cell phenotype is induced by soluble GRP78 binding. Myeloid CD14+ cells were co-stimulated for 7 days with IL-4, and GMCSF. On day 5 LPS along with or without GRP78 and GRP78 antagonists were added. On day 8, dendritic cells were fixed and stained for flow cytometry. The percent of B7H3, PD-L1, CD86 was measured by flowcytometry and compared to GRP78 untreated dendritic cells.
# To determine if GRP78 antagonists can block the tolerogenic phenotype of GRP78 treated dendritic cells, we differentiated immature dendritic cells. From 20 million human pooled PBMCs (AllCells), we isolated about 2.5 million CD14+ monocytes using positive selection with a pluribead CD14 kit (Pluriselect). […] From our multiple studies, we can isolate about 2.5 million CD14+ monocytes from 20 million PBMCs using positive selection with pluribeads (Pluriselect). […] On day 8, cells were fixed and aliquots stained at 4 C for various tolerogenic DC markers: PD-I([…]), B7H4, […], CD86, CD14, ROR1. Stained cells were analyzed byflow cytometry analysis. All antibodies for the DC markers were PE labeled from BD PharMingen. The cytokine, IL-10 (ENZO Life Sciences), was assayed by ELISA (Sigma). Negative controls wells were with GRP78 and positive controls are without GRP78 but with LPS. […] All of these antagonists decreased expression of PD-L1, B7H4, B7H3, and IL-10 from mature dendritic cells and increased expression of the maturity marker CD86 on dendritic cells (FIGS. 9A-9C).
# ROR1 binding to GRP78 = target: T2, ROR1 binding to GRP78 (Homo sapiens, UniProt P11021); experiment: Immunoprecipitation of ROR1 using GRP78-Biotin from D54 glioma cell lysate; settings: D54 glioma cell-surface lysate, 100 nM, FIG. 5
# T2 construct: purchased StressMarq; host or cells: ROR1 is endogenous, from D54 glioma cell lysate
# T2 sequence (P11021 19-654): as the sequence (P11021 19-654, species assumed) above
# Source text: The use of GRP78/ROR1 antagonists to break immune tolerance for the treatment of resistant cancers represents a major shift in cancer therapies. Few, if any, current anti-cancer therapies have anti-angiogenic, anti-tumor and immune modulatory activities similar to modified ROR1, ROR2, and K5 kringle domains. To understand what pathways could be responsible for these activities in tumor and dendritic cells, we used GRP78 binding and crosslinking pull down studies against the cell surface proteome of D54 glioma cells and dendritic cells. We have identified that ROR1 and ROR2 as a cell GRP78 surface receptor.
# Since the mechanism of action is inconclusive for soluble, surface bound GRP78, we decided to identify the surface receptor for GRP78 on glioma (D54) cells. Using GRP78 (StressMarq) labeled with Biotin (Sigma, Mix-n-Match), pull down experiments were performed. 2×10(6) D54 glioma cells were grown in a T25 cm flask with full DMEM media overnight. The next day the media was removed and the cells were washed with ice cold PBS. To the attached cells ice cold octyl-lysis buffer (Pierce detergent cell lysis kit) was added and the cells were scrapped off and incubated in a tube with gentle agitation at 4 C for 60 minute. The microcentrifuge tube was centrifuged at 12,000×g for 20 minutes. The supernatant was gently removed and placed on ice. […]
# [8] = listed as Kr1(1-91 Active Zone)frag SEQ ID NO: 19
molecule,measurement,setting,value
COc1cccc2c1C(=O)c1c(O)c3c(c(O)c1C2=O)C[C@@](O)(C(=O)CO)C[C@@H]3O[C@H]1C[C@H](N)[C@H](O)[C@H](C)O1 [Doxorubicin],IC50,[1],2440 nM
same,IC50,[2],7 nM
same,IC50,[3],7 nM
"Kr1(1-91 Active Zone)frag SEQ ID NO:19: ROR1 kringle domain (amino acids 308-400 ROR1), expressed in 293T cells",binding range to GRP78,GRP78,pM range
same,% Proliferation Inhibition,"D54 glioma cells; D54, 0.1 μg/ml",15 ± 3%
same,% Proliferation Inhibition,"D54 glioma cells; D54, 1 μg/ml",52 ± 6%
same,% Proliferation Inhibition,"D54 glioma cells; D54, 10 μg/ml",85 ± 3%
same,% Proliferation Inhibition,"[4]; Calu 6, 0.1 μg/ml",14 ± 2%
same,% Proliferation Inhibition,"[4]; Calu 6, 1 μg/ml",31 ± 5%
same,% Proliferation Inhibition,"[4]; Calu 6, 10 μg/ml",60 ± 5%
same,% Proliferation Inhibition,"[5]; MDA231, 0.1 μg/ml",33 ± 8%
same,% Proliferation Inhibition,"[5]; MDA231, 1 μg/ml",63 ± 12%
same,% Proliferation Inhibition,"[5]; MDA231, 10 μg/ml",86 ± 10%
same,% Proliferation Inhibition,"U87 glioma cells; U87, 0.1 μg/ml",12 ± 7%
same,% Proliferation Inhibition,"U87 glioma cells; U87, 1 μg/ml",45 ± 7%
same,% Proliferation Inhibition,"U87 glioma cells; U87, 10 μg/ml",82 ± 8%
same,% Proliferation Inhibition,"[6]; HT29, 0.1 μg/ml",0 ± 8%
same,% Proliferation Inhibition,"[6]; HT29, 1 μg/ml",10 ± 9%
same,% Proliferation Inhibition,"[6]; HT29, 10 μg/ml",0 ± 5%
same,% Proliferation Inhibition,293 Kidney fibroblasts; 0.1 μg/ml,0 ± 5%
same,% Proliferation Inhibition,293 Kidney fibroblasts; 1 μg/ml,0 ± 6%
same,% Proliferation Inhibition,293 Kidney fibroblasts; 10 μg/ml,0 ± 7%
same,inhibition of tumor cell proliferation,panel of tumor cells,potent dose response inhibition
same,potency of inhibition of tumor cell proliferation relative to K5,panel of tumor cells,several fold more potent
same,IL-10 expression of tolerogenic dendritic cells,"[7]; 100 nM, FIG. 10",elimination of IL-10 expression
same,maturity marker CD86 on DCs exposed to GRP78/LPS,[7],completely reverses; also recorded: increases in the maturity marker CD86
same,maturity marker CD86 on DCs exposed to GRP78/LPS,[7]; [8],increases in the maturity marker CD86
same,activity for reversing the tolerogenic phenotype of dendritic cells induced by GRP78,[7],potent nM activity
same,activity for reversing the tolerogenic phenotype of dendritic cells induced by GRP78,[7]; [8],reverses
same,"potency in blocking B7H3 on DCs exposed to GRP78, relative to K5",[7],at least 65 times
same,"potency in blocking B7H3 on DCs exposed to GRP78, relative to K5",[7]; [8],more potent
same,percentage of B7H4+ marker on GRP78 treated DCs,"[7]; increasing concentrations, FIGS. 11, 12",decreasing percentages
B1,blocking of immunoprecipitation of ROR1 using GRP78,ROR1 binding to GRP78,not
